Measurements: US8871899B2, “Control of viral-host membrane fusion with hydrogen bond surrogate-based artificial helices” (priority 2007, dated 2014)
Where a SMILES comes first, the peptide text is derived from it. Where no end group is shown, it is not given here. The star is where a group is joined. 4‑pentenoyl = C=CCCC(=O)*

Assays:
[1] = test system: CHO[HIVe] (clone 7d2) cells expressing HXB2 envelope and tat cocultured with U373-MAGI cells; assay type: cell-based, HIV-1
Method: Cell-cell fusion (i.e., syncytium formation) was assayed by coculturing CHO[HIVe] (clone 7d2) cells expressing HXB2 envelope and tat with U373-MAGI cells (M. Emerman and A. Geballe, National Institutes of Health AIDS Research and Reference Reagent Program) in the presence of different concentrations of peptides 1-10. Cell fusion allows the expression of nuclear β-galactosidase from the U373-MAGI indicator cell line and can be quantitated by monitoring β-galactosidase activity. After an overnight incubation at 37° C. after coculture, β-galactosidase enzymatic activity was measured with the Mammalian β-galactosidase Chemiluminescent Assay Kit (Gal-Screen from Applied Biosystems). The peptide inhibitor concentrations at which activities were reduced by 50% (IC50) relative to control samples lacking peptide inhibitor were calculated by fitting data to the variable-slope-sigmoid equation using the Prism program.
Cell-cell fusion (i.e., syncytium formation) was assayed by co-culturing CHO[HIVe] […] Cell fusion allows the expression of nuclear β-galactosidase from the U373-MAGI indicator cell line and can be quantitated by monitoring β-galactosidase activity.

[2] = test system: IZN17 (stable model of the gp41 N-terminal three strand coiled-coil); test: Fluorescence polarization-based competitive binding assay (displacement of fluorescein-labeled peptide 12 from IZN17); design: species or system HIV-1; conditions: for Binding to IZN17, result in words: fluorescence polarization competition with probe 12
[3] = Circular dichroism spectroscopy (helicity); assay type: physicochemical; conditions: 10% trifluoroethanol in PBS buffer
Method: CD spectra were recorded on an AVIV 202SF CD spectrometer equipped with a temperature controller using 1 mm length cells and a scan speed of 5 nm/min. The spectra were averaged over 10 scans with the baseline subtracted from analogous conditions as that for the samples. The samples were prepared in 0.1× phosphate buffered saline (13.7 mM NaCl, 1 mM phosphate, 0.27 mM KCl, pH 7.4), containing 10% trifluoroethanol, with the final peptide concentration of 50-100 μM. The concentrations of unfolded peptides were determined by the UV absorption of the tyrosine residue at 276 nm in 6.0 M guanidinium hydrochloride aqueous solution. The helix content of each peptide was determined from the mean residue CD at 222 nm, [θ]222 (deg cm^2 dmol^−1) corrected for the number of amino acids. Percent helicity was calculated from the ratio [θ]222/[θ]max, where [θ]max=(−44000+250T)(1−k/n), with k=4.0 and n=number of residues. For details on θmax calculations for HBS helices, see Wang et al., “Evaluation of Biologically Relevant Short α-Helices Stabilized by a Main-chain Hydrogen-bond Surrogate,” J. Am. Chem. Soc. 128:9248-56 (2006), which is hereby incorporated by reference in its entirety.
It was conjectured that stabilization of this peptide in helical conformation with the HBS approach may increase its helicity and affinity for IZN17. […]

[4] = test system: CHO[HIVe] (clone 7d2) cells expressing HXB2 envelope and tat cocultured with U373-MAGI cells; conditions: literature report; cited from earlier work
[5] = biological target: IZN17 (stable model of the gp41 N-terminal three strand coiled-coil); test: Saturation binding of fluorescein-labeled peptide 12 with IZN17 (fluorescence polarization); design: species or system HIV-1; conditions: saturation binding curve, PBS buffer at 25° C.
Method: FIG. 14 is a graph showing the saturation binding curve of fluorescein-labeled peptide 12 with IZN17 in PBS buffer at 25° C.
The relative affinity of peptides 1-10 for IZN17 (i.e., peptide 11) was determined using a fluorescence polarization-based competitive binding assay (Eckert & Kim, “Design of Potent Inhibitors of HIV-1 Entry from the gp41 N-Peptide Region,” Proc. Nat'l Acad. Sci. U.S.A. 98:11187-92 (2001); Stephens et al., “Inhibiting HIV Fusion with a β-Peptide Foldamer,” J. Am. Chem. Soc. 127:13126-7 (2005), which are hereby incorporated by reference in their entirety) with fluorescein-labeled peptide 12, shown in FIG. 13. FIG. 14 is a graph showing the saturation binding curve of fluorescein-labeled peptide 12 with IZN17 in PBS buffer at 25° C.
A previously described fluorescence polarization assay was utilized to determine the in vitro binding affinity of unconstrained peptides and HBS helices for a stable model of the gp41 N-terminal three strand coiled-coil, IZN17, which contains the binding site for residues W628, W631, and 1635 (see Example 3, supra) (Eckert & Kim, “Design of Potent Inhibitors of HIV-1 Entry from the gp41 N-Peptide Region,” Proc. Nat'l Acad. Sci. U.S.A. 98:11187-92 (2001), which is hereby incorporated by reference in its entirety). […]

CC[C@H](C)[C@H](NC(=O)[C@H](CCCCN)NC(=O)[C@H](CCCCN)NC(=O)[C@@H](NC(=O)[C@H](Cc1ccc(O)cc1)NC(=O)[C@H](CCC(=O)O)NC(=O)[C@H](CCC(=O)O)NC(=O)[C@@H](NC(=O)[C@H](CCCCN)NC(=O)[C@H](CCCCN)NC(=O)[C@H](CC(=O)O)NC(=O)[C@H](Cc1c[nH]c2ccccc12)NC(=O)[C@H](CCC(=O)O)NC(=O)[C@H](CCC(=O)O)NC(=O)[C@H](Cc1c[nH]c2ccccc12)N1CC=CCCC(=O)N[C@@H](CCSC)C(=O)N[C@@H]([C@@H](C)O)C1=O)[C@@H](C)CC)[C@@H](C)O)C(N)=O [compound 9, XMTWEEWDKKIEEYTKKI]
EC50 ([1]; overnight coculture at 37° C., β-galactosidase readout, read-out: EC50, inhibition of gp41-mediated cell fusion): 43 µM

XMTWMEWDREINNYT ({4‑pentenoyl}-MTWMEWDREINNYT; staple (positions not given here); also: hydrogen bond surrogate, N-allyl residue position not given here) [compound 2]
Binding to IZN17, result in words [2]: did not bind the target protein with higher affinity

CC[C@H](C)[C@H](NC(=O)[C@H](CCC(=O)O)NC(=O)[C@H](CCCNC(=N)N)NC(=O)[C@H](CC(=O)O)NC(=O)[C@H](Cc1c[nH]c2ccccc12)NC(=O)[C@H](CCC(=O)O)NC(=O)[C@H](CCSC)NC(=O)[C@H](Cc1c[nH]c2ccccc12)NC(=O)[C@@H](NC(=O)[C@H](CCSC)NC(C)=O)[C@@H](C)O)C(=O)N[C@@H](CC(N)=O)C(=O)N[C@@H](CC(N)=O)C(=O)N[C@@H](Cc1ccc(O)cc1)C(=O)N[C@H](C(N)=O)[C@@H](C)O [peptide 1, AcMTWMEWDREINNYT-NH2, reference compound] (Ac-MTWMEWDREINNYT-NH2)
Kd ([2]; PBS pH 7.4, 0.1% pluronic F-68, 25° C., 25 μM IZN17, 15 nM probe 12, values much lower than probe Kd are upper limits, read-out: Kd, binding affinity for IZN17 (competition assay)): 37 µM
Helicity by CD, result in words [3]: unstructured or very weakly helical
Activity in cell-cell fusion assays as previously shown (Sia et al.) [4]: ineffective in cell-cell fusion assays

Suc-MTWMEWDERINNYTC^Flu-NH2 [peptide 12]
Kd [5]: 24 µM

CC[C@H](C)[C@H](NC(=O)[C@H](CCCCN)NC(=O)[C@H](CCCCN)NC(=O)[C@@H](NC(=O)[C@H](Cc1ccc(O)cc1)NC(=O)[C@H](CCC(=O)O)NC(=O)[C@H](CCC(=O)O)NC(=O)[C@@H](NC(=O)[C@H](CCCCN)NC(=O)[C@H](CCCCN)NC(=O)[C@H](CC(=O)O)NC(=O)[C@H](Cc1c[nH]c2ccccc12)NC(=O)[C@H](CCC(=O)O)NC(=O)[C@H](CCC(=O)O)NC(=O)[C@H](Cc1c[nH]c2ccccc12)NC(=O)[C@@H](NC(=O)[C@H](CCSC)NC(C)=O)[C@@H](C)O)[C@@H](C)CC)[C@@H](C)O)C(N)=O [peptide 10, AcMTWEEWDKKIEEYTKKI—NH2] (Ac-MTWEEWDKKIEEYTKKI-NH2)
Binding to IZN17, result in words [2]: bound IZN17 with a similar affinity as 9
Cell fusion inhibition, result in words ([1]; concentrations up to 200 μM): remained ineffective in the cell culture assay
